# Assay results: ChEMBL document CHEMBL3612013, “Cyclodextrin complexation highly enhances efficacy of arylsulfonylureido benzenesulfonamide carbonic anhydrase inhibitors as a topical antiglaucoma agents” (Bioorg Med Chem, 2015)
# Key:
# [1] = Aqueous solubility in pH 7.4 PBS incubated for 48 hrs at 25 degC by spectrophotometry; type: physicochemical
# [2] = Aqueous solubility in pH 7.4 PBS in presence of gamma-cyclodextrin incubated for 48 hrs at 25 degC by spectrophotometry; type: physicochemical; details: PBS with gamma-cyclodextrin
# [3] = Aqueous solubility in pH 7.4 PBS in presence of hydroxypropyl-gamma cyclodextrin incubated for 48 hrs at 25 degC by spectrophotometry; type: physicochemical; details: PBS with hydroxypropyl-gamma cyclodextrin
# [4] = Aqueous solubility in pH 7.4 PBS in presence of hydroxypropyl-alpha cyclodextrin incubated for 48 hrs at 25 degC by spectrophotometry; type: physicochemical; details: PBS with hydroxypropyl-alpha cyclodextrin
# [5] = Aqueous solubility in pH 7.4 PBS in presence of sulfobutyl-ether-beta cyclodextrin incubated for 48 hrs at 25 degC by spectrophotometry; type: physicochemical; details: PBS with sulfobutyl-ether-beta cyclodextrin
# [6] = Aqueous solubility in pH 7.4 PBS in presence of hydroxypropyl-beta cyclodextrin incubated for 48 hrs at 25 degC by spectrophotometry; type: physicochemical; details: PBS with hydroxypropyl-beta cyclodextrin
# [7] = Aqueous solubility in pH 7.4 PBS in presence of hydroxyethyl-beta cyclodextrin incubated for 48 hrs at 25 degC by spectrophotometry; type: physicochemical; details: PBS with hydroxyethyl-beta cyclodextrin
# [8] = Stability of the compound; type: physicochemical
# Oryctolagus cuniculus [9] = experiment: (§1) Antiglaucoma activity in New Zealand albino rabbit model of carbomer-induced hypertensive eye glaucoma assessed as time duration showing reduction in intraocular pressure at 0.07% using compound complexed with cyclodextrin directly instilled into conjunctive pocket measured 24 hrs post drug administration; type: functional
# Oryctolagus cuniculus [10] = experiment: as §1, with “as” for “as time duration showing reduction in”, “1 hr” for “24 hrs”, “administration (reference value: 45 to 50 mmHg)” for “administration”; type: functional
# Oryctolagus cuniculus [11] = experiment: as §1, with “as” for “as time duration showing reduction in”, “administration (reference value: 45 to 50 mmHg)” for “administration”; type: functional
# Oryctolagus cuniculus [12] = experiment: Toxicity in New Zealand albino rabbit model of carbomer-induced hypertensive eye glaucoma assessed as induction of eye irritation at 2% directly instilled into conjunctive pocket measured 24 hrs post drug administration; type: organism-based; details: in vivo, topical_or_ocular
# Oryctolagus cuniculus [13] = experiment: Toxicity in New Zealand albino rabbit model of carbomer-induced hypertensive eye glaucoma assessed as induction of eye irritation at 0.07% using compound complexed with cyclodextrin directly instilled into conjunctive pocket measured 24 hrs post drug administration; type: organism-based; details: in vivo, topical_or_ocular
# [14] = Equilibrium solubility in pH 7.4 PBS in presence of hydroxypropyl-gamma cyclodextrin incubated for 48 hrs at 25 degC by spectrophotometry; type: physicochemical; details: PBS with hydroxypropyl-gamma cyclodextrin
# Oryctolagus cuniculus [15] = experiment: as §1, with “0.37%” for “0.07%”; type: functional
# Oryctolagus cuniculus [16] = experiment: (§2) Antiglaucoma activity in New Zealand albino rabbit model of carbomer-induced hypertensive eye glaucoma assessed as intraocular pressure at 0.37% using compound complexed with cyclodextrin directly instilled into conjunctive pocket measured 1 hr post drug administration (reference value: 45 to 50 mmHg); type: functional
# Oryctolagus cuniculus [17] = experiment: as §2, with “24 hrs” for “1 hr”; type: functional
# Oryctolagus cuniculus [18] = experiment: Toxicity in New Zealand albino rabbit model of carbomer-induced hypertensive eye glaucoma assessed as induction of eye irritation at 0.37% using compound complexed with cyclodextrin directly instilled into conjunctive pocket measured 24 hrs post drug administration; type: organism-based; details: in vivo, topical_or_ocular
solubility at 48 h [1],solubility at 48 h [2],solubility at 48 h [3],solubility at 48 h [4],solubility at 48 h [5],solubility at 48 h [6],solubility at 48 h [7],K [8],solubility thermodynamic at 48 h [14],SMILES,Time (Oryctolagus cuniculus [9]),Activity (Oryctolagus cuniculus [10]),Activity (Oryctolagus cuniculus [11]),Activity (Oryctolagus cuniculus [12]),Activity (Oryctolagus cuniculus [13]),Time (Oryctolagus cuniculus [15]),Activity (Oryctolagus cuniculus [16]),Activity (Oryctolagus cuniculus [17]),Activity (Oryctolagus cuniculus [18])
87 µg/mL,232 µg/mL,278 µg/mL,141 µg/mL,174 µg/mL,212 µg/mL,203 µg/mL,143.75 M⁻¹,700 µg/mL,Cc1ccc(S(=O)(=O)NC(=O)NCCc2ccc(S(N)(=O)=O)cc2)cc1,20 h,36 mmHg,35 mmHg,Toxic,Toxic,–,–,–,–
972 µg/mL,2260 µg/mL,2330 µg/mL,1580 µg/mL,1810 µg/mL,2170 µg/mL,2240 µg/mL,76.3 M⁻¹,3700 µg/mL,NS(=O)(=O)c1ccc(CCNC(=O)NS(=O)(=O)c2ccc(F)cc2)cc1,–,–,–,Toxic,–,20 h,36 mmHg,35 mmHg,Toxic
